According to patent US20240122878A1 (priority 2021, published 2024):
Values joined by “and” are separate entries in the source; they are usually repeats but may differ in a detail not shown here. Equal entries are not always repeated. Structures can show the parent of a compound that is named as a salt.

Key:
in vitro [1] = conditions: human
Excerpt: (§1) Based on historical data obtained in the experimental model, the mean permeability value (Papp) for each reference compound was expected to fall within the predetermined specifications.
(§2) Fluorescein was used as the zero-permeability marker in all Caco-2 cell assays as a quality control for the integrity of the Caco-2 monolayer. […] Well-defined criteria (known or readily available to those of ordinary skill in the art) have been established for the acceptance of fluorescein results to validate monolayer integrity.
(§3) Testing concentrations for the in vitro permeability assessment were determined at 1%, 10%, and 100% of the highest strength dissolved in 250 mL. […]

Caco-2 monolayer = assay: in vitro
Excerpt: as §1, §2, §3

[2] = biological target: hERG (human ether-a-go-go-related gene) channel current (Homo sapiens, UniProt Q12809); assay: Non GLP hERG channel current study (manual patch); assay type: cell-based; conditions: for Hill coefficient: non GLP study
hERG (human ether-a-go-go-related gene) channel current, sequence (Q12809 whole entry): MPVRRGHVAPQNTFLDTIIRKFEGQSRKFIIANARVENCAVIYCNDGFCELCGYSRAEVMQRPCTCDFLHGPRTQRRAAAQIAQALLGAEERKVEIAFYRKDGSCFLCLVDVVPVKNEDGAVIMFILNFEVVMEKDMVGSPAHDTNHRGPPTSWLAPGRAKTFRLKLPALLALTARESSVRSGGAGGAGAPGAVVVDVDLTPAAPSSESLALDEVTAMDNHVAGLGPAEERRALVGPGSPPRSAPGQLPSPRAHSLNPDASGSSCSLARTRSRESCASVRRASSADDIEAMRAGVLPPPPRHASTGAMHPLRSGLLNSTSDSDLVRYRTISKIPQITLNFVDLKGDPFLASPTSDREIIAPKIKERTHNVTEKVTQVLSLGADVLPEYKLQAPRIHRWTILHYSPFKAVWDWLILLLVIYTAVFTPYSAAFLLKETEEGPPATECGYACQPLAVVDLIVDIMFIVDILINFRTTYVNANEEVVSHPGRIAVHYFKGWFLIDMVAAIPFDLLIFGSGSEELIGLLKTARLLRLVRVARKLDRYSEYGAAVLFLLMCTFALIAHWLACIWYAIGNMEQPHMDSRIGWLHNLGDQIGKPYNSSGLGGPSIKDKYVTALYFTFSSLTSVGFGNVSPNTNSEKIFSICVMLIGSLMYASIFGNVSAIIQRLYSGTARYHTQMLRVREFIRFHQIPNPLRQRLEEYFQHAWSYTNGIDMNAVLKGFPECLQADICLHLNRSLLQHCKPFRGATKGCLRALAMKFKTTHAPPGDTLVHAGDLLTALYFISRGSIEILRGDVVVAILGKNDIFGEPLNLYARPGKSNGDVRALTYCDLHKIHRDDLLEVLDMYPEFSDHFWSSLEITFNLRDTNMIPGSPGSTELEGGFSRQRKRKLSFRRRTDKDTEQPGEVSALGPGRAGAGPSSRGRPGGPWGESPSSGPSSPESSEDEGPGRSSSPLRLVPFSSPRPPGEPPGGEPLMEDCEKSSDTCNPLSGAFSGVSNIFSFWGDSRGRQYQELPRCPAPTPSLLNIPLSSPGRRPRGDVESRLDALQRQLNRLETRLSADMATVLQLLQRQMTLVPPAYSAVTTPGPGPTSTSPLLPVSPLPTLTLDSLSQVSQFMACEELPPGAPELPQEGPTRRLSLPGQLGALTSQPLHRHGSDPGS
Method: (§4) The objective of this study was to examine the in vitro effects of three test articles on the hERG (human ether-a-go-go-related gene) channel current (a surrogate for the rapidly activating delayed rectifier cardiac potassium current, IKr). The concentration-response relationship was evaluated at near-physiological temperature (35-37° C.

hERG = hERG (Homo sapiens, UniProt Q12809); assay: Non GLP hERG channel current study (manual patch); assay type: cell-based; conditions: human
hERG, sequence (Q12809 whole entry): as above
Method: as §4

in vitro [3] = conditions: 37° C.; for Half-Life, Rep. 1-3 / half-life / Half-Life, Mean / half-life at 10 μM: 10 μM; for half-life / half-life at 10 μM: simulated gi fluid; for % Compound Remaining, Mean / % Compound Remaining, Rep. 1-3: 100 μg/mL
Method: Gastrointestinal solution stability was performed along with the Caco-2 cell permeability assay study.

[4] = Equilibrium solubility study; conditions: for solubility thermodynamic: 37 °C, thermodynamic from solid, Equilibrium solubility
[5] = Caco-2, Percent Recovery, Mean, A-B, 10 μM
[6] = Caco-2, Percent Recovery, Rep. 1-3, A-B, 10 μM
[7] = Caco-2, pH 6.5, Permeability, Mean, A-B, Caco-2, pH 6.5/7.4, 10 μM
[8] = Caco-2, pH 6.5, Permeability, Rep. 1-3, A-B, Caco-2, pH 6.5/7.4, 10 μM
[9] = Caco-2, pH 6.5, Permeability, Rep. 1-3, B-A, Caco-2, pH 6.5/7.4, 10 μM
[10] = Caco-2, Percent Recovery, Mean, B-A, 10 μM
[11] = Caco-2, Percent Recovery, Rep. 1-3, B-A, 10 μM
[12] = Caco-2, pH 6.5, Permeability, Mean
[13] = Caco-2, pH 6.5, Permeability, Rep. 1-3
[14] = Caco-2, pH 6.5, Permeability, Mean (SD)
[15] = simulated gastric fluid, 0 minutes
[16] = simulated gastric fluid, 60 minutes
[17] = simulated intestinal fluid, 0 minutes
[18] = simulated intestinal fluid, 180 minutes

## CC(CCc1ccccc1)NCC(O)c1ccc(O)c(C(N)=O)c1 (stereo not drawn) [Labetalol]
In vitro [1]; [5]
  recovery: 117%
In vitro [1]; [6]
  recovery: 118%
In vitro [1]; [7]
  Papp A→B: 19.6 ×10⁻⁶ cm/s
In vitro [1]; Caco-2, pH 6.5, Permeability, Mean, B-A, Caco-2, pH 6.5/7.4, 10 μM
  Papp B→A: 49.3 ×10⁻⁶ cm/s
In vitro [1]; [8]
  Papp A→B: 20.2 ×10⁻⁶ cm/s
In vitro [1]; [9]
  Papp B→A: 48.7 ×10⁻⁶ cm/s

## COc1cc2c(c(OC)c1OC)-c1ccc(OC)c(=O)cc1[C@@H](NC(C)=O)CC2 [Colchicine]
In vitro [1]; [10]
  recovery: 91%
In vitro [1]; [6]
  recovery: 88%
In vitro [1]; [11]
  recovery: 88%
In vitro [1]; [12]
  Papp A→B: 0.3 ×10⁻⁶ cm/s
  Papp B→A: 7.3 ×10⁻⁶ cm/s
In vitro [1]; [13]
  Papp A→B: 0.31 ×10⁻⁶ cm/s
  Papp B→A: 7.69 ×10⁻⁶ cm/s
Caco-2 monolayer; A-B, 10 μM
  Percent Recovery, Rep. 1-3: 78%
Caco-2 monolayer; B-A, 10 μM
  Percent Recovery, Rep. 1-3: 94%

## CNC(=C[N+](=O)[O-])NCCSCc1ccc(CN(C)C)o1 [Ranitidine]
In vitro [1]; [5]
  recovery: 101%
In vitro [1]; [6]
  recovery: 100%
In vitro [1]; [12]
  Papp A→B: 0.7 ×10⁻⁶ cm/s
  Papp B→A: 2.4 ×10⁻⁶ cm/s
In vitro [1]; [13]
  Papp A→B: 0.8 ×10⁻⁶ cm/s
  Papp B→A: 2.54 ×10⁻⁶ cm/s
Caco-2 monolayer; A-B, 10 μM
  Percent Recovery, Rep. 1-3: 99%
Caco-2 monolayer; B-A, 10 μM
  Percent Recovery, Rep. 1-3: 96% and 92%

## CCC(=O)C(CC(C)N(C)C)(c1ccccc1)c1ccccc1 (racemic) [racemic methadone]
[2]
  Hill coefficient: 0.743
hERG
  IC50: 1000 nM
hERG; 0.3 μM, read-out: Inhibition of hERG current (Mean, SEM; n=4)
  inhibition at 0.3 µM: 33.4%
hERG; 1 uM, read-out: Inhibition of hERG current (Mean, SEM; n=4)
  inhibition at 1 µM: 43.6%
hERG; 10 μM, read-out: Inhibition of hERG current (Mean, SEM; n=4)
  inhibition at 10 µM: 86.9%
hERG; 3 AM, read-out: Inhibition of hERG current (Mean, SEM; n=4)
  inhibition at 3 μM: 71.1%

## CCC(=O)C(C[C@@H](C)N(C)C)(c1ccccc1)c1ccccc1 [levomethadone]
[2]
  IC50: 828 nM
  Hill coefficient: 0.764
hERG; 0.366 μM (n=5), 35-37° C., read-out: Inhibition of hERG current (Mean±SEM)
  inhibition at 0.366 µM: 36 ± 4.9%
hERG; 1.13 μM (n=4), read-out: Inhibition of hERG current (Mean±SEM)
  inhibition at 1.13 µM: 54.3 ± 6.7%
hERG; 3.32 μM (n=4), read-out: Inhibition of hERG current (Mean±SEM)
  inhibition at 3.32 µM: 73.6 ± 1.5%
hERG; 11.2 μM, read-out: Inhibition of hERG current (Mean±SEM)
  inhibition at 11.2 µM: 90 ± 0.5%

## CC(C)NCC(O)COc1cccc2ccccc12 (stereo not drawn) [Propranolol]
In vitro [1]; [5]
  recovery: 104%
In vitro [1]; [10]
  recovery: 108%
In vitro [1]; [6]
  recovery: 106%
In vitro [1]; [11]
  recovery: 106%
In vitro [1]; [12]
  Papp B→A: 47.5 ×10⁻⁶ cm/s
In vitro [1]; [7]
  Papp A→B: 40.9 ×10⁻⁶ cm/s
In vitro [1]; [13]
  Papp B→A: 48.1 ×10⁻⁶ cm/s
In vitro [1]; [8]
  Papp A→B: 45.4 ×10⁻⁶ cm/s
In vitro [1]; [9]
  Papp B→A at 10 μM: 48.8 ×10⁻⁶ cm/s
Caco-2 monolayer; A-B, 10 μM
  Percent Recovery, Rep. 1-3: 99%
Caco-2 monolayer; A-B, Caco-2, pH 6.5/7.4, 10 μM
  Permeability, Rep. 1-3: 40.35 10^−6 cm/s and 36.94 10^−6 cm/s
Caco-2 monolayer; B-A, 10 μM
  Percent Recovery, Rep. 1-3: 115% and 102%
Caco-2 monolayer; human, Caco-2, pH 6.5
  Permeability, Rep. 1-3: 45.79 10^−6 cm/s

## CC[C@H]1OC(=O)[C@H](C)[C@@H](O[C@H]2C[C@@](C)(OC)[C@@H](O)[C@H](C)O2)[C@H](C)[C@@H](O[C@@H]2O[C@H](C)C[C@H](N(C)C)[C@H]2O)[C@](C)(O)C[C@@H](C)C(=O)[C@H](C)[C@@H](O)[C@]1(C)O [Erythromycin, reference compound]
In vitro [3]; simulated gastric fluid
  Half-Life, Rep. 1-3: 6.5 min
In vitro [3]; Mean, simulated gastric fluid
  half-life: 6 min
In vitro [3]; Rep. 1-3, simulated gastric fluid
  half-life: 6.4 min

## CC(C)[N+](C)(CCOC(=O)C1c2ccccc2Oc2ccccc21)C(C)C [Propanthaline, reference compound]
In vitro [3]; simulated gastric fluid
  Half-Life, Mean: >60 min
  Half-Life, Rep. 1-3: >60 min
In vitro [3]; simulated intestinal fluid
  Half-Life, Mean: >180 min
  Half-Life, Rep. 1-3: 253.1 min and 251.2 min and 227.0 min

## O=C(O)CCCc1ccc(N(CCCl)CCCl)cc1 [Chlorambucil, reference compound]
In vitro [3]; Mean, simulated intestinal fluid
  half-life at 10 μM: 26 min
In vitro [3]; Rep. 1-3, simulated intestinal fluid
  half-life at 10 μM: 26.2 min
In vitro [3]; simulated intestinal fluid
  Half-Life, Rep. 1-3: 25.7 min

## CCC(=O)C(C[C@H](C)N(C)C)(c1ccccc1)c1ccccc1 [esmethadone HCl]
In vitro [1]; Caco-2, Mean recovery values, across the assays
  recovery: 51 to 74%
In vitro [1]; Caco-2, Percent Recovery, Mean (SD), A-B, 1 μg/mL
  recovery: 51%
In vitro [1]; Caco-2, Percent Recovery, Mean (SD), A-B, 10 μg/mL
  recovery: 57%
In vitro [1]; Caco-2, Percent Recovery, Mean (SD), A-B, 100 μg/mL
  recovery: 61%
In vitro [1]; Caco-2, Percent Recovery, Mean (SD), B-A, 1 μg/mL
  recovery: 60%
In vitro [1]; Caco-2, Percent Recovery, Mean (SD), B-A, 10 μg/mL
  recovery: 74%
In vitro [1]; Caco-2, Percent Recovery, Mean (SD), B-A, 100 μg/mL
  recovery: 74%
In vitro [1]; Caco-2, Percent Recovery, Rep. 1-3, A-B, 1 μg/mL
  recovery: 53%
In vitro [1]; Caco-2, Percent Recovery, Rep. 1-3, A-B, 10 μg/mL
  recovery: 57%
In vitro [1]; Caco-2, Percent Recovery, Rep. 1-3, A-B, 100 μg/mL
  recovery: 64%
In vitro [1]; Caco-2, Percent Recovery, Rep. 1-3, B-A, 1 μg/mL
  recovery: 65%
In vitro [1]; Caco-2, Percent Recovery, Rep. 1-3, B-A, 10 μg/mL
  recovery: 67%
In vitro [1]; Caco-2, Percent Recovery, Rep. 1-3, B-A, 100 μg/mL
  recovery: 74%
In vitro [1]; [14]
  Papp A→B: 16.3 ×10⁻⁶ cm/s
  Papp B→A: 28.6 ×10⁻⁶ cm/s
In vitro [1]; [13]
  Papp A→B: 21 ×10⁻⁶ cm/s
  Papp B→A: 29.4 ×10⁻⁶ cm/s
Caco-2 monolayer; A-B, 10 μg/mL
  Percent Recovery, Rep. 1-3: 54%
Caco-2 monolayer; A-B, 100 μg/mL
  Percent Recovery, Rep. 1-3: 56%
Caco-2 monolayer; B-A, 1 μg/mL
  Percent Recovery, Rep. 1-3: 58% and 59%
Caco-2 monolayer; B-A, 10 μg/mL
  Percent Recovery, Rep. 1-3: 82%
Caco-2 monolayer; B-A, 100 μg/mL
  Percent Recovery, Rep. 1-3: 82% and 68%
Caco-2 monolayer; Caco-2
  Permeability category: high permeability
[4]; pH 1.2, simulated gastric fluid, Mean, pH 1.2, 37° C.
  solubility thermodynamic: 58.8 mg/mL
[4]; pH 1.2, simulated gastric fluid, replicates, pH 1.2, 37° C., individual replicates
  solubility thermodynamic: 62.1 mg/mL
[4]; pH 4.5, aqueous buffer, Mean, pH 4.5, 37° C.
  solubility thermodynamic: 66.9 mg/mL
[4]; pH 4.5, aqueous buffer, replicates, pH 4.5, 37° C., individual replicates
  solubility thermodynamic: 67 mg/mL
[4]; pH 6.8, aqueous buffer, Mean, pH 6.8, 37° C.
  solubility thermodynamic: 3.2 mg/mL
[4]; pH 6.8, aqueous buffer, replicates, pH 6.8, 37° C., individual replicates
  solubility thermodynamic: 3.1 mg/mL
[4]; over the total time of the solubility study
  Stability of the drug substance in each buffer: ≤ 10%
[4]; pH 1.2, 37° C., individual replicates
  Equilibrium solubility, replicates: 60.0 mg/mL and 54.2 mg/mL
[4]; pH 4.5, 37° C., individual replicates
  Equilibrium solubility, replicates: 66.7 mg/mL and 66.8 mg/mL
[4]; pH 6.8, 37° C., individual replicates
  Equilibrium solubility, replicates: 3.2 mg/mL
In vitro [3]; [15]
  % Compound Remaining, Mean: 100 % remaining
  % Compound Remaining, Rep. 1-3: 100.0 % remaining
In vitro [3]; [16]
  % Compound Remaining, Mean: 109 % remaining
  % Compound Remaining, Rep. 1-3: 110.2 % remaining and 127.3 % remaining and 90.0 % remaining
In vitro [3]; [17]
  % Compound Remaining, Mean: 100 % remaining
  % Compound Remaining, Rep. 1-3: 100.0 % remaining
In vitro [3]; [18]
  % Compound Remaining, Mean: 97 % remaining
  % Compound Remaining, Rep. 1-3: 89.6 % remaining and 96.6 % remaining and 105.9 % remaining
